{"source": "paper PMC8553373", "about": "(The Journal of Biological Chemistry, 2021)", "target": "Nsp9COV19(C73S) as substrate of Nsp12COV19 NiRAN domain (Severe acute respiratory syndrome coronavirus 2, UniProt P0DTD1, C4213S)", "format": "biochemical, SARS-CoV-2", "data": [{"smiles": "C=C1C(=O)[C@]23[C@H](O)[C@H]1CC[C@H]2[C@@]12CO[C@]3(O)[C@@H](O)[C@@H]1C(C)(C)CC[C@@H]2O", "note": "[Compound 1, Oridonin]", "values": [{"measurement": "level of inhibition with mutant Nsp9 compared with wild-type", "value": "approximately threefold lower"}]}]}
